Test results from paper PMC3616073, “Engineering Agatoxin, a Cystine-Knot Peptide from Spider Venom, as a Molecular Probe for In Vivo Tumor Imaging” (PLoS ONE, 2013).
Like-named read-outs stand apart in the source and are kept apart here. Where a SMILES comes first, the peptide text is derived from it. Bridges are numbered along the chain shown (N, C = ends).

Key:
[1] = parameters: method as in PMID 20124048, PMID 19276378; details: cited from earlier work; for Stability in serum and blood: radiolabeled probes of earlier studies
[2] = target: T1, αvβ3 integrin on K562-αvβ3 cells (Homo sapiens, UniProt P05106+P06756); assay: Competition binding assay on K562-αvβ3 cells (FLAG-AgRP 7A competitor, flow cytometry); details: competition with 0.5 nM FLAG-AgRP 7A, 5×10^4 K562-αvβ3 cells in IBB, 4 hr at 4 °C, anti-FLAG flow cytometry, mean of three experiments ± SD, read-out: IC50 (relative binding affinity to K562-αvβ3 cells)
T1 construct: expressed in transfected cells; host or cells: K562 leukemia cells (courtesy of S. Blystone)
Description: Competition binding assays were used to measure the relative affinities of the AgTx 7C variants and AgRP 7C to K562 leukemia cells transfected to express high levels of αvβ3 integrin [50]. […] FLAG-AgRP 7A contains an N-terminal FLAG epitope tag (DYKDDDDK), which allows detection of cell surface binding by flow cytometry using a fluorescently labeled anti-FLAG antibody.
Figure 3 Engineered AgTx 7C variants bind to K562-αvβ3 cells with similar IC50 values. Varying concentrations of AgRP 7C and AgTx 7C variants were incubated with FLAG-AgRP 7A and allowed to compete for binding to integrin receptors expressed on the surface of K562-αvβ3 cells. Representative competition binding curves are shown, and are plotted as knottin concentration versus the fraction of FLAG-AgRP 7A bound. IC50 values reported as mean of three experiments ± SD. TEXT PRINTED IN THE PICTURE: AgRP 7C: IC50 (nM): 2.2 ± 1.0 | AgTx 7C ΔR21: IC50 (nM): 2.3 ± 0.5 | AgTx 7C P22G R24I: IC50 (nM): 8.1 ± 1.6 | AgTx 7C ΔR21 P22G R24I: IC50 (nM): 5.1 ± 1.6 | AgTx 7C ΔR9: IC50 (nM): 2.5 ± 0.4
Competition binding assays were performed on K562 leukemia cells transfected to express high levels of αvβ3 integrins. Varying concentrations of AgRP 7C and AgTx variants were incubated with 5×10^4 K562-αvβ3 cells in IBB for 4 hr at 4 °C, along with a constant concentration (0.5 nM) of recombinantly expressed FLAG-AgRP 7A knottin as a competitor. FLAG-AgRP 7A binds with high affinity to αvβ3 integrin and contains an N-terminal epitope tag (DYKDDDDK), allowing cell surface binding to be detecting using an anti-FLAG antibody. Care was taken to allow adequate time for equilibrium binding and to avoid ligand depleting conditions. […] Cells were washed with BPBS and analyzed by flow cytometry on a FACSCalibur instrument (BD Biosciences), and data was quantified using FlowJo software (TreeStar). IC50 values were determined by nonlinear regression analysis using KaleidaGraph (Synergy Software). […]

[3] = target: T2, αvβ3 integrins expressed on U87MG glioblastoma cells (Homo sapiens, UniProt P05106+P06756); assay: Competition binding assay on U87MG glioblastoma cells (FLAG-AgRP 7A competitor, flow cytometry); details: competition with 5 nM FLAG-AgRP 7A, 5×10^4 U87MG cells in IBB, 4 hr at 4 °C, mean of three experiments ± SD
T2 construct: U87MG glioblastoma cells, which express high levels of αvβ3 integrin receptors; host or cells: U87MG human glioblastoma cells
Description: For simplicity, we chose to move forward with AgTx 7C ΔR21 for in vivo molecular imaging studies. To visualize tumor targeting and tissue biodistribution, we conjugated the near-infrared dye Alexa Fluor 680 (AF680) to the N-terminal amino group of AgTx 7C ΔR21 (Fig. S3A). We also synthesized AF680-labeled versions of AgRP 7C and EETI 2.5F for comparison studies. AF680-labeled EETI RDG, which contains a scrambled integrin recognition sequence, [30], served as a non-binding control. AF680-labeled knottin peptides were purified by RP-HPLC and had the expected masses for the addition of one dye molecule (Fig. S3B, C). Competition binding assays were used to determine if AF680 conjugation affected integrin recognition. FLAG-AgRP 7A was used to compete for knottin binding to U87MG human glioblastoma cells (Fig. 4).
Figure 4 Unlabeled and AF680-labeled knottins bind U87MG cells with high affinity. […]
Competition binding assays were performed on K562 leukemia cells transfected to express high levels of αvβ3 integrins. […] Cells were washed with BPBS and analyzed by flow cytometry on a FACSCalibur instrument (BD Biosciences), and data was quantified using FlowJo software (TreeStar). IC50 values were determined by nonlinear regression analysis using KaleidaGraph (Synergy Software). […]

Question: For `CC(C)C[C@@H]1NC(=O)[C@@H]2CSSC[C@@H](C(=O)NCC(=O)O)NC(=O)[C@H](Cc3ccccc3)NC(=O)CNC(=O)[C@H](CC(N)=O)NC(=O)[C@@H]3CCCN3C(=O)CNC(=O)[C@@H]3CSSC[C@H](NC(=O)[C@H]([C@@H](C)O)NC(=O)[C@H](CC(C)C)NC(=O)[C@@H]4CCCN4C(=O)[C@@H]4CCCN4C(=O)[C@H](CC(N)=O)NC(=O)[C@H](CC(=O)O)NC(=O)CNC(=O)[C@H](CCCNC(=N)N)NC(=O)[C@@H]4CCCN4C(=O)[C@H](CCCNC(=N)N)NC(=O)[C@@H]4CCCN4C(=O)[C@@H](NC(=O)CN)CSSC[C@H](NC(=O)CNC(=O)[C@H](C)NC1=O)C(=O)N[C@@H](C(C)C)C(=O)N3)C(=O)N[C@@H](CO)C(=O)N[C@@H](CCC(N)=O)C(=O)N[C@@H](CC(=O)O)C(=O)N[C@@H](CO)C(=O)N[C@@H](CC(=O)O)C(=O)N2` [EETI 2.5F] (H-GCPRPRGDNPPLTCSQDSDCLAGCVCGPNGFCG-OH; disulfide 2-24, 14-26, 20-32), which “Stability in serum and blood” value [1] is on record?
Answer: remarkably stable in serum and blood

Question: For `CC[C@H](C)[C@@H]1NC(=O)[C@@H](NC(=O)CN)CSSC[C@@H]2NC(=O)[C@@H]3CSSC[C@@H](C(=O)N[C@H](C(=O)O)[C@@H](C)O)NC(=O)[C@H](CCC(=O)O)NC(=O)[C@@H]4CSSC[C@H](NC(=O)[C@H]([C@@H](C)CC)NC(=O)[C@H](CSSC[C@H](NC(=O)[C@H](CCCNC(=N)N)NC(=O)CNC(=O)[C@H](Cc5ccc(O)cc5)NC(=O)[C@H](CC(=O)O)NC(=O)[C@H](CCC(=O)O)NC(=O)[C@H](C)NC1=O)C(=O)N[C@@H]([C@@H](C)O)C(=O)N[C@@H](Cc1c[nH]c5ccccc15)C(=O)NCC(=O)NCC(=O)N[C@@H]([C@@H](C)O)C(=O)N1CCC[C@H]1C(=O)N3)NC(=O)CNC(=O)CNC(=O)[C@H](CCCNC(=N)N)NC2=O)C(=O)N[C@@H](Cc1ccc(O)cc1)C(=O)NCC(=O)N[C@@H](CCCNC(=N)N)C(=O)NCC(=O)N[C@@H](CC(=O)O)C(=O)N[C@@H](CC(N)=O)C(=O)N[C@@H](CC(=O)O)C(=O)N[C@@H](CC(C)C)C(=O)N[C@@H](CCCNC(=N)N)C(=O)N4` [AgTx 7C ΔR21 P22G R24I] (H-GCIAEDYGRCTWGGTPCCRGGCICYGRGDNDLRCECT-OH; disulfide 2-18, 10-22, 17-36, 24-34), which IC50 [2] is on record?
Answer: 5.1 ± 1.6 nM

Question: Which “Metabolic breakdown in the liver, kidneys, and tumor” value ([1]; compared to EETI 2.5F) does the source give for `CC(C)C[C@@H]1NC(=O)[C@@H]2CSSC[C@@H]3NC(=O)[C@H]([C@@H](C)O)NC(=O)[C@H](C)NC(=O)[C@H](C)NC(=O)[C@@H]4CCCN4C(=O)[C@H](CC(=O)O)NC(=O)[C@H](CSSC[C@H](NC(=O)CN)C(=O)N[C@@H](C(C)C)C(=O)N[C@@H](CCCNC(=N)N)C(=O)N[C@@H](CC(C)C)C(=O)N[C@@H](Cc4c[nH]cn4)C(=O)N[C@@H](CCC(=O)O)C(=O)N[C@@H](CO)C(=O)N2)NC(=O)[C@H](CSSC[C@@H](C(=O)N[C@@H](CCCNC(=N)N)C(=O)O)NC(=O)[C@H](Cc2ccc(O)cc2)NC(=O)[C@@H]2CSSC[C@H](NC(=O)[C@H](Cc4ccc(O)cc4)NC3=O)C(=O)N[C@@H](Cc3ccc(O)cc3)C(=O)NCC(=O)N[C@@H](CCCNC(=N)N)C(=O)NCC(=O)N[C@@H](CC(=O)O)C(=O)N[C@@H](CC(N)=O)C(=O)N[C@@H](CC(=O)O)C(=O)N[C@@H](CC(C)C)C(=O)N[C@@H](CCCNC(=N)N)C(=O)N2)NC(=O)[C@@H]2CCCN2C(=O)[C@H](C(C)C)NC(=O)[C@H](CCC(N)=O)NC(=O)[C@H](CCC(N)=O)NC(=O)CNC1=O` [AgRP 7C] (H-GCVRLHESCLGQQVPCCDPAATCYCYGRGDNDLRCYCR-OH; disulfide 2-17, 9-23, 16-37, 25-35) here?
Answer: higher levels of metabolic breakdown

Question: What about the “Stability in serum and blood” value [1] of the same compound?
Answer: remarkably stable in serum and blood

Question: With `CC[C@H](C)[C@@H]1NC(=O)[C@@H](NC(=O)CN)CSSC[C@@H]2NC(=O)[C@@H]3CSSC[C@@H](C(=O)N[C@H](C(=O)O)[C@@H](C)O)NC(=O)[C@H](CCC(=O)O)NC(=O)[C@@H]4CSSC[C@H](NC(=O)[C@H](CCCNC(=N)N)NC(=O)[C@H](CSSC[C@H](NC(=O)[C@H](CCCNC(=N)N)NC(=O)CNC(=O)[C@H](Cc5ccc(O)cc5)NC(=O)[C@H](CC(=O)O)NC(=O)[C@H](CCC(=O)O)NC(=O)[C@H](C)NC1=O)C(=O)N[C@@H]([C@@H](C)O)C(=O)N[C@@H](Cc1c[nH]c5ccccc15)C(=O)NCC(=O)NCC(=O)N[C@@H]([C@@H](C)O)C(=O)N1CCC[C@H]1C(=O)N3)NC(=O)[C@@H]1CCCN1C(=O)CNC(=O)[C@H](CCCNC(=N)N)NC2=O)C(=O)N[C@@H](Cc1ccc(O)cc1)C(=O)NCC(=O)N[C@@H](CCCNC(=N)N)C(=O)NCC(=O)N[C@@H](CC(=O)O)C(=O)N[C@@H](CC(N)=O)C(=O)N[C@@H](CC(=O)O)C(=O)N[C@@H](CC(C)C)C(=O)N[C@@H](CCCNC(=N)N)C(=O)N4` [AgTx 7C ΔR21] (H-GCIAEDYGRCTWGGTPCCRGPCRCYGRGDNDLRCECT-OH; disulfide 2-18, 10-22, 17-36, 24-34) as the compound, how does the IC50 [2] read?
Answer: 2.3 ± 0.5 nM

Question: What about the IC50 ([3]; unlabeled knottin, read-out: IC50, Unlabeled) of the same compound?
Answer: 10 ± 1 nM

Question: Which IC50 [2] does the source give for `CC[C@H](C)[C@@H]1NC(=O)[C@@H](NC(=O)CN)CSSC[C@@H]2NC(=O)[C@@H]3CSSC[C@@H](C(=O)N[C@H](C(=O)O)[C@@H](C)O)NC(=O)[C@H](CCC(=O)O)NC(=O)[C@@H]4CSSC[C@H](NC(=O)[C@H]([C@@H](C)CC)NC(=O)[C@H](CSSC[C@H](NC(=O)[C@H](CCCNC(=N)N)NC(=O)CNC(=O)[C@H](Cc5ccc(O)cc5)NC(=O)[C@H](CC(=O)O)NC(=O)[C@H](CCC(=O)O)NC(=O)[C@H](C)NC1=O)C(=O)N[C@@H]([C@@H](C)O)C(=O)N[C@@H](Cc1c[nH]c5ccccc15)C(=O)NCC(=O)NCC(=O)N[C@@H]([C@@H](C)O)C(=O)N1CCC[C@H]1C(=O)N3)NC(=O)CNC(=O)[C@H](CCCNC(=N)N)NC(=O)CNC(=O)[C@H](CCCNC(=N)N)NC2=O)C(=O)N[C@@H](Cc1ccc(O)cc1)C(=O)NCC(=O)N[C@@H](CCCNC(=N)N)C(=O)NCC(=O)N[C@@H](CC(=O)O)C(=O)N[C@@H](CC(N)=O)C(=O)N[C@@H](CC(=O)O)C(=O)N[C@@H](CC(C)C)C(=O)N[C@@H](CCCNC(=N)N)C(=O)N4` [AgTx 7C P22G R24I] (H-GCIAEDYGRCTWGGTPCCRGRGCICYGRGDNDLRCECT-OH; disulfide 2-18, 10-23, 17-37, 25-35) here?
Answer: 8.1 ± 1.6 nM

Question: With “AF680-labeled EETI 2.5F: EETI 2.5F with one Alexa Fluor 680 dye at the N-terminus (CPRPRGDNPPLTCKQDSDCLAGCVCGPNGFCG; Alexa Fluor 680 on N-terminal amine; 3 disulfides)” as the compound, how does the IC50 ([3]; AF680-labeled knottin, read-out: IC50, AF680 labeled) read?
Answer: 4 ± 0.2 nM
